Source: patent publication US20230364104A1, “PHARMACEUTICAL COMBINATION FOR THE TREATMENT OF HUMAN HYPOCHOLINERGIC DISORDERS” (priority 2020, published 2023)
Read-outs that look alike come from different tables or passages of the source.

Assays:
[1] = tested on: myocardial tissue; conditions: acetylcholine 1 μM, cited from earlier work
[2] = in vivo; cited from earlier work
[3] = oral pirenzepine 100-300 mg co-administered with donepezil, healthy volunteers

Row | Structure (SMILES) | suppression of the effect of acetylcholine ([1]; antagonist 1 μM) | also measured
1 | CCN(CC)CCCCC1CCN(CC(=O)N2c3ccccc3C(=O)Nc3cccnc32)CC1 [AQ-RA 741, 11-[[4-[4-(diethylamino)butyl]-1-piperidinyl]acetyl]-5,11-dihydro-6H-pyrido[2,3-b] [1,4]benzodiazepin-6-one] | partial suppression of the effect of acetylcholine | –
2 | O=C(O[C@H]1CN2CCC1CC2)N1CCc2ccccc2[C@@H]1c1ccccc1 [solifenacin] | – | effect on QTc [2]: increase in QTc
3 | CN1[C@@H]2CC[C@H]1C[C@@H](OC(=O)C(CO)c1ccccc1)C2 (stereo partly drawn) [atropine] | completely abolished the effect of acetylcholine | –
4 | C[N+]1(C)CCC(OC(=O)C(c2ccccc2)c2ccccc2)CC1.[I-] [4DAMP, 4-[(Diphenylacetyl)oxy]-1,1-dimethylpiperidin-1-ium iodide] | – | suppression of the effect of acetylcholine ([1]; antagonist 0.1 μM): did not suppress the effect of acetylcholine
5 | CN1CCN(CC(=O)N2c3ccccc3C(=O)Nc3cccnc32)CC1 [pirenzepine, 11-[(4-methylpiperazin-1-yl)acetyl]-5,11-dihydro-6H-pyrido[2,3-b][1,4]benzodiazepin-6-one] | did not suppress the effect of acetylcholine | increase in the tolerated dose of donepezil [3]: enabling the safe increase in the dose of donepezil
